Source: paper PMC3660367, “MARCKS Protein Is Phosphorylated and Regulates Calcium Mobilization during Human Acrosomal Exocytosis” (PLoS ONE, 2013)
No end group written: not given here.

Test system: intracellular calcium levels in human spermatozoa
Assay: Intracellular calcium measurement of human spermatozoa (Fluo-3-AM)
Type: cell-based
Details: intact sperm, Fluo-3-AM 2 µM; 4 µM ED-TMR 30 min before 15 µM progesterone; three experiments
Method: Calcium levels were measured in sperm suspensions using the intracellular fluorescent probe Fluo-3-AM. Motile sperm were adjusted to a concentration of 5–10 ×10^6 cells/ml and loaded with the permeable form of the dye (Fluo-3-AM, 2 µM) for 30 min at 37°C. Cells were washed once and resuspended in HTF. Sperm suspensions were transferred to thermostated (37°C) cuvettes for fluorescence measurements and stirred constantly. At the indicated times, 15 µM progesterone was added to the samples. When indicated, sperm where incubated 30 min in presence of 4 µM of the permeable tetramethylrhodamine-labeled MARCKS ED (ED-TMR) before adding progesterone. Fluo-3 fluorescence (λEx = 505 nm, λEm = 525 nm emission) was recorded in an AMINCO-Bowman Series 2 (AB2) spectrofluorometer. […] To calibrate the maximal response, intracellular calcium concentration ([Ca^2+]i) was determined using Triton X-100 (0.1%). […]
Figure 5 Assessing MARCKS function on acrosomal exocytosis in non-permeabilized sperm. […] The increase in fluorescence is expressed as (F/F0)-1 ((maximum fluorescence intensity/initial fluorescence)-1) versus time in seconds. […] (D) Quantification of three independent experiments. […] Phosphorylated MARCKS was detected by Western blot assay using an anti-phospho-MARCKS antibody. […] Phosphorylated MARCKS was detected by Western blot assay using an anti-phospho-MARCKS antibody. […]

“KKRFSFKKSFKL (also: tetramethylrhodamine conjugate, site not given here) [ED-TMR, commercial (Anaspec) tetramethylrhodamine-conjugated peptide … from residues 154–165 of human MARCKS ED]” was tested, and the “effect on the increase in calcium levels caused by progesterone” value was “significantly diminished”.
